Here are results for 3 compounds from US20060035942A1, “Fungicidal combinations of active substances” (priority 2002, published 2006).

The experiment has as its system Pyrenophora teres. The experiment is described as follows: Pyrenophora teres test (barley)/curative. Particulars: curative, application rate 100 g/ha, evaluation 7 days after inoculation. The experiment is classed as in vivo. How it is done:
Pyrenophora teres Test (Barley)/Curative • Solvent: 25 parts by weight of N,N-dimethylacetamide • Emulsifier: 0.6 part by weight of alkylaryl polyglycol ether To produce a suitable preparation of active compound, 1 part by weight of active compound is mixed with the stated amounts of solvent and emulsifier, and the concentrate is diluted with water to the desired concentration. To test for curative activity, young plants are sprayed with a conidia suspension of Pyrenophora teres. The plants remain in an incubation cabin at 20° C. and 100% relative atmospheric humidity for 48 hours. The plants are then sprayed with the preparation of active compound at the stated application rate. The plants are placed in a greenhouse at a temperature of about 20° C. and a relative atmospheric humidity of about 80%. Evaluation is carried out 7 days after the inoculation. 0% means an efficacy which corresponds to that of the control, whereas an efficacy of 100% means that no infection is observed.
For `CON=C(C(=O)OC)c1ccccc1CO/N=C(\C)c1cccc(C(F)(F)F)c1` [Ex. (I)], the Efficacy in % was determined as 67%.

`OC(Cc1ccccc1Cl)(Cn1nc[nH]c1=S)C1(Cl)CC1` (stereo not drawn) [Ex. (II)] gave an Efficacy in % of 56%.

`CC(C)(C)C(O)(CCc1ccc(Cl)cc1)Cn1cncn1` (stereo not drawn) [Ex. (III)]: the Efficacy in % came out at 22%.
